Data: patent US20250176877A1, “SENSING PLATFORMS WITH NEEDLES AND METHODS OF FABRICATION AND USE” (Purdue Research Foundation, priority 2023, published 2025)

Tested on: HL-1 cells
Details: 100 nM nifedipine, control without drug 0.85±0.17 mV
Description: The surface of the sensing platform 10 was coated with a gelatin solution to ensure cell adhesion, and no additional functionalization agents were used. […] To further improve the adhesion of the needles 12 to the cell membrane, mechanoporation was conducted by centrifuging at 500 rpm for one minute. Electroporation was followed using a series of biphasic square pulses to facilitate electrical access to the intracellular region. […] In order to showcase the live imaging capabilities through the optical transparency of the sensing platform 10, concurrent calcium ion (Ca^2+) flux imaging was simultaneously performed using an inverted microscope—a standard tool that is compatible only with transparent substrates. For Ca^2+ flux imaging, Fluo-8, a fluorescent calcium indicator, was loaded into the cells for live imaging, and the alteration in fluorescent intensity (AF) was measured and compared with the resting intensity (F0).
To evaluate the signal quality of the sensing platform 10, a comparative analysis of signal amplitude was conducted in comparison to a control group including the needles on a Si wafer. The measurements were limited to the cells that had been beating at approximately 1 Hz for at least one day, as the recorded amplitude and beating interval can vary with cell culture age.

COC(=O)C1=C(C)NC(C)=C(C(=O)OC)C1c1ccccc1[N+](=O)[O-] [nifedipine]
peak amplitude of action potential: 0.55±0.12 mV
